Measurements reported in EP0465913B1, “Diaminotrifluoromethylpyrimidine derivatives, process for their production and phospholipase A2 inhibitor containing them” (ISHIHARA SANGYO KAISHA, LTD., priority 1990, dated 1992).
Where two headings read alike, the source gives them in different places.

Legend:
[1] = molecular target: T1, Porcine pancreatic phospholipase A2 (Sus scrofa, UniProt P00592); assay: Phospholipase A2 inhibitory activity, method A (egg yolk lecithin substrate); format: biochemical; details: 1,000 ppm, 37°C for 30 minutes, read-out: % inhibition of PLA2 (1,000 ppm)
T1 construct: purchased Boehringer Mannheim·Yamanouchi K.K. 161454·122416
T1 sequence (P00592 23-146): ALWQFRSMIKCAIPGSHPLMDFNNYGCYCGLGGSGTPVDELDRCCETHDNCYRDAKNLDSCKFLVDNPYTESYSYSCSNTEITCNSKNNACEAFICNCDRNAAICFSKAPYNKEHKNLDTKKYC
Description: To 10 mg of egg yolk lecithin (manufactured by Wako Pure Chemical Industries Ltd.), 1 ml of glycerine, 2 ml of a 50 mM Tris-HCl buffer solution (pH7.5) [Tris(hydroxymethyl)aminomethane (manufactured by Nacalai Tesque K.K.) was adjusted to pH7.5 with hydrochloric acid], 0.5 ml of a 150 mM calcium chloride solution (calcium chloride was dissolved in a 50 mM Tris-HCl buffer solution) and 0.5 ml of a 0.05% Triton-X100 (manufactured by Nacalai Tesque K.K.) solution (Triton-X100 was dissolved in a 50 mM Tris-HCl buffer solution), were added and dispersed by an agate mortar or dispersed by an ultrasonic processor (Model W-225, manufactured by Heat System-Ultrasonics, Inc.) for 5 minutes (30W) to obtain a substrate.
(§1) Porcine pancreatic phospholipase A2 [(161454·122416) manufactured by Boehringer Mannheim·Yamanouchi K.K.] was used.
To a 96 well microtitration plate (flat bottom, manufactured by Sumitomo Bakelite Medical Co., Ltd.), 40 µl of the substrate, 5 µl of a solution prepared by dissolving 10 mg of a test compound in 500 µl of dimethylsulfoxide, followed by an addition of 500 µl of a 50 mM Tris-HCl buffer solution, and 5 µl of an enzyme solution of 20 ng/ml (prepared by diluting the enzyme in a 50 mM Tris-HCl buffer solution), were added and reacted at 37°C for 30 minutes. After termination of the reaction, the released free fatty acid was quantitatively analyzed in accordance with the ACS-ACOD (acyl CoA synthetase-acyl CoA oxidase) method [a kit of NEFA C test wako (manufactured by Wako Pure Chemical Industries, Ltd.) was used]. The quantitative analysis was made by means of Microplate ELISA Reader (Model 2550EIA Reader, manufactured by Bio-Rad Laboratories) at a wavelength of 540 nm. Separately, such experiments as mentioned above, were carried out at various concentrations (2 µg/ml, 1 µg/ml and 0.5 µg/ml) of phospholipase A2 without a test compound. Then, the concentration of the free fatty acid versus the concentration of phospholipase A2 was plotted.
(§2) From this standard curve, the apparent concentration of phospholipase A2 in the case with a test compound, was read. Then, the percent inhibition of the enzyme was calculated by the following formula. Percent inhibition (%) = (l -(A)/(B)) x 100 [formula] • A: Apparent enzyme concentration when a test compound is added. • B: True enzyme concentration when a test compound is added.

[2] = system: experimental acute pancreatitis model; assay: Effects against acute pancreatitis (Test Example 8, closed duodenal loop method, lesion scores); format: in vivo, Crj-CD male rats; details: sodium salt, 6 hours after ventrotomy; for inhibition in vivo at 10 mg/kg: Rattus norvegicus, 10 mg/kg single intravenous injection
Description: Using Crj-CD male rats, each test group consisted of 3 rats. An experimental acute pancreatitis model was prepared by a closed duodenal loop method under anethesia with halothane (manufactured by Hoechst Japan) and nitrous oxide (manufactured by Sumitomo Seika K.K.) applied by a general inhalation anesthesia machine (Model EM2 and halothane evaporator F-Model). Each compound (subjected to the test in the form of a sodium salt) was continuously intravenously injected into the tail vein in an amount of 0.4 ml/100 g to 0.6 ml/100 g at a rate of 0.05 ml per minute by a pump (Technicon AA II Proportioning Pump III, manufactured by Technicon Instruments Corporation) or rapidly intravenously injected. No injection was made to a control group. Gross pathological examination was conducted upon expiration of 6 hours after the ventrotomy in the case of the group to which the compound was administered. With respect to each of four lesions among pancreatic lesions i.e. petechia, ecchymosis, pancreatic necrosis and abdominal fatty necrosis, the grade and the distribution of lesions were scored with five grades of 0, 0.5, 1, 2 and 3 (severe lesions are 3). The sum of all lesions was designated as scores of pancreatitis lesions, and the sum of the score of petechia and the score of ecchymosis only was designated as scores of hemorrhagic lesions. The pancreatitis inhibition rate (%) and the hemorrhage inhibition rate (%) were obtained by the following formulas, and the results are shown in Table 13. Pancreatitis inhibition rate (%) = (l -(H)/(G)) x 100 [formula] • H: Scores of pancreatitis lesions of the group to which a test compound was administered. • G: Scores of pancreatitis lesions of the control group. Hemorrhage inhibition rate (%) = (l -(J)/(I)) x 100 [formula] • J: Scores of hemorrhagic lesions of the group to which a test compound was administered. • I: Scores of hemorrhagic lesions of the control group.

[3] = molecular target: T1, Porcine pancreatic phospholipase A2; assay: Phospholipase A2 inhibitory activity, method B (L-α-dipalmitoylphosphatidylcholine substrate); format: biochemical; details: 37°C for 30 minutes; for inhibition at 1000 ppm: 1,000 ppm, read-out: % inhibition of PLA2 (1,000 ppm)
Description: To a solution prepared by dissolving 9.2 mg of L-α-dipalmitoylphosphatidylcholine (manufactured by Nichiyu Liposome K.K.) in 0.5 ml of chloroform, a solution prepared by dissolving 32 mg of sodium cholate (manufactured by Wako Pure Chemical Industries, Ltd.) in 0.5 ml of methanol, was added, followed by mixing. The solvent of the mixture was removed under a nitrogen stream, and then 2.5 ml of a 250 mM sodium chloride solution [prepared by dissolving sodium chloride in a 100 mM Tris-HCl buffer solution {tris(hydroxymethyl)aminomethane (manufactured by Nacalai Tesque K.K.) was adjusted to pH8.0 with hydrochloric acid}] was added thereto, and the mixture was dissolved under stirring to obtain a substrate.
as §1
To a 96 well microtitration plate, 20 µl of a solution containing calcium chloride, bovine serum alubmin (manufactured by Sigma Chemical, Co.) and a Tris-HCl buffer solution (pH8.0) at concentrations of 25 mM, 4.5 mg/ml and 100 mM, respectively, 5 µl of a solution prepared by dissolving 10 mg of a test compound in 500 µl of diemthylsulfoxide, followed by an addition of 500 µl of a 200 mM Tris-HCl buffer solution, 5 µl of an enzyme solution (10 µg/ml) [prepared by dissolving the enzyme in a bovine serum alubmin solution (prepared by dissolving bovine serum alubmin in a 100 mM Tris-HCl buffer solution at a concentration of 1 mg/ml)] and 20 µl of the substrate, were added and reacted at 37°C for 30 minutes. After termination of the reaction, the released free fatty acid was quantitatively analyzed in accordance with the ACS-ACOD (acyl CoA synthetase-acyl CoA oxidase) method [a kit of NEFA C test wako (manufactured by Wako Pure Chemical Industries, Ltd.) was used]. The quantitative analysis was made by means of Microplate ELISA Reader (Model 2550EIA Reader, manufactured by Bio-Rad Laboratories) at a wavelength of 540 nm. Separately, such experiments as mentioned above, were carried out at various concentrations (1 µg/ml, 0.75 µg/ml, 0.5 µg/ml and 0.25 µg/ml) of phospholipase A2 without a test compound. Then, the concentration of the free fatty acid versus the concentration of phospholipase A2 was plotted.
as §2

[4] = system: carrageenin edema; assay: Inhibitory activity on carrageenin edema; format: in vivo, Wistar male rats; details: rat; dose 50 mg/kg orally; paw swelling volume three hours after carrageenin
Description: Using Wistar male rats (body weight: about 100 g), each test group consisted of 5 rats. A test compound was mixed with Tween 80 [polyoxyethylenesorbitan monooleate (manufactured by Nacalai Tesque K.K.)], and distilled water was added thereto to obtain a 2% Tween 80 suspension, or it was dissolved in the form of a salt in water to obtain an aqueous solution. Either the suspension or the aqueous solution was orally administered in an amount of 200 mg/kg, 100 mg/kg, 50 mg/kg or 25 mg/kg. One hour later, 0.1 ml of a 1% λ-carrageenin solution dissolved in a physiological saline was injected subcutaneously to the right hind paw of each rat to cause inflamation. Three hours later, the paw volume was measured by a paw volume measuring device (manufactured by Ugobasiee K.K.). A swelling volume was obtained from the difference from the value before the inflammation. Inhibition rate (%) = (l -(F)/(E)) x 100 [formula] • F: Average swelling volume in the group to which a test compound was administered. • E: Average swelling volume in the control group.

[5] = Acute toxicity, intravenous injection (LD50); format: in vivo; details: mouse, in vivo, iv, ddy male mice, sodium salt, mortality over one week
Description: Administration route: Intravenous injection
Using ddy male mice (body weight: 25 - 30 g), each test group consisted of 5 mice. A test compound was dissolved in the form of a sodium salt in a physiological saline or in a 5% glucose aqueous solution, and intravenously injected in an amount of 0.1 ml/10 g body weight. After the injection, the mortality rate was obtained over one week, and the median lethal dose LD50 (mg/kg) was determined.

[6] = read-out: Inhibition rate of hemorrhagic lesions (%)
[7] = read-out: Inhibition rate of pancreatitis lesions (%)

SMILES	inhibition at 1000 ppm [1] [%]	inhibition at 1000 ppm [3] [%]	Inhibition rate (%) [4] [%]	also measured
CCOCCC(=O)Nc1cc(C(F)(F)F)cnc1NC(=O)CCOCC [compound 26]	35	–	–	–
CS(=O)(=O)Nc1ncc(C(F)(F)F)cc1NC(=O)C(F)(F)C(F)(F)C(F)(F)F [compound 14]	54	–	–	Inhibition rate of hemorrhagic lesions (%) ([2]; 19 mg/kg continuous intravenous injection): 52%
CCCOC(=O)Nc1cc(C(F)(F)F)cnc1NS(=O)(=O)N(C)C [compound 114]	–	53	28	inhibition in vivo at 10 mg/kg [2, 6]: 32%; inhibition in vivo at 10 mg/kg [2, 7]: 27%
O=C(Nc1cc(C(F)(F)F)cnc1NC(=O)C(F)(F)C(F)(F)F)c1ccccc1 [compound 32]	50	–	–	–
CC(C)S(=O)(=O)Nc1ncc(C(F)(F)F)cc1NC(=O)C(Cl)(Cl)Cl [compound 50]	78	–	–	–
O=C(Nc1ncc(C(F)(F)F)cc1NC(=O)C(F)(F)F)C(Cl)Cl [compound 27]	62	–	–	–
CCCCS(=O)(=O)Nc1ncc(C(F)(F)F)cc1NC(=O)C(F)(F)C(F)(F)F [compound 52]	49	–	–	–
CCOC(=O)Nc1ncc(C(F)(F)F)cc1NC(=O)OCc1ccccc1 [compound 38]	35	–	–	–
COc1ccc(C(=O)Nc2cc(C(F)(F)F)cnc2NS(C)(=O)=O)cc1 [compound 44]	43	64	–	–
CS(=O)(=O)Nc1ncc(C(F)(F)F)cc1NC(=O)c1ccc(F)cc1 [compound 259]	–	–	17	% inhibition of PLA2 (1,000 ppm) [3]: 61%
CCCCS(=O)(=O)Nc1ncc(C(F)(F)F)cc1NC(=O)C1CCCCC1 [compound 53]	37	100	–	–
CS(=O)(=O)Nc1ncc(C(F)(F)F)cc1NC(=O)C1=CCCCC1 [compound 69]	–	63	25	–
CS(=O)(=O)Nc1ncc(C(F)(F)F)cc1NC(=O)CCCCCl [compound 46]	47	–	30	Inhibition rate of hemorrhagic lesions (%) ([2]; 46 mg/kg continuous intravenous injection): 36%
CCOC(=O)NC(=S)Nc1cc(C(F)(F)F)cnc1NC [compound 54]	37	–	–	–
CCS(=O)(=O)Nc1ncc(C(F)(F)F)cc1NC(=O)c1ccccc1 [compound 48]	48	–	–	–
CC(C)S(=O)(=O)Nc1ncc(C(F)(F)F)cc1NC(=O)c1cccc(F)c1 [compound 104]	–	61	48	–
CS(=O)(=O)NNc1ncc(C(F)(F)F)cc1NC(=O)C(F)(F)C(F)(F)F [compound 40]	–	–	–	LD50 at 168 h [5]: 50 to 100 mg/kg
CS(=O)(=O)Nc1ncc(C(F)(F)F)cc1NC(=O)c1cccc(F)c1 [compound 58]	74	42	–	inhibition in vivo at 10 mg/kg [2, 6]: 70%; inhibition in vivo at 10 mg/kg [2, 7]: 51%
O=C(Nc1ncc(C(F)(F)F)cc1NC(=O)C(Cl)(Cl)Cl)C(F)(F)F [Compound No. 30, N-(3-trichloroacetylamino-5-trifluoromethyl-2-pyridyl)trifluoroacetamide]	87	–	–	–
CS(=O)(=O)Nc1ncc(C(F)(F)F)cc1NC(=O)c1ccc2c(c1)CCCC2 [compound 123]	–	86	42	inhibition in vivo at 10 mg/kg [2, 6]: 56%; inhibition in vivo at 10 mg/kg [2, 7]: 56%
CCCCCCCC(=O)Nc1cc(C(F)(F)F)cnc1NS(C)(=O)=O [compound 125]	–	86	22	–
CCC(C(=O)Nc1cc(C(F)(F)F)cnc1NS(C)(=O)=O)c1ccccc1 (stereo not drawn) [compound 66]	–	52	31	inhibition in vivo at 10 mg/kg [2, 6]: 53%; inhibition in vivo at 10 mg/kg [2, 7]: 63%
O=C(Nc1cc(C(F)(F)F)cnc1NC(=O)C(F)(F)F)C(Cl)Cl [compound 29]	47	–	–	–
CC(C)S(=O)(=O)Nc1ncc(C(F)(F)F)cc1NC(=O)C(F)(F)C(F)(F)F [compound 51]	63	–	–	–
O=C(Nc1cc(C(F)(F)F)cnc1NC(=O)C(Cl)Cl)C(Cl)Cl [compound 28]	71	–	25	–
CCCCC(CC)C(=O)Nc1cc(C(F)(F)F)cnc1NS(C)(=O)=O (stereo not drawn) [compound 65]	–	71	37	inhibition in vivo at 10 mg/kg [2, 6]: 67%; inhibition in vivo at 10 mg/kg [2, 7]: 74%
